Like-named read-outs stand apart in the source and are kept apart here.

This test deals with T1, mTOR (Homo sapiens, UniProt P42345).
T1 construct: FLAG; made in house
Description: In Vitro mTOR Kinase Assay (Echo), Test (a)(ii). In kind it is biochemical. The text has this: (a)(ii) In Vitro mTOR Kinase Assay (Echo)
The assay used AlphaScreen technology (Gray et al., Analytical Biochemistry, 2003, 313: 234-245) to determine the ability of test compounds to inhibit phosphorylation by recombinant mTOR.
A C-terminal truncation of mTOR encompassing amino acid residues 1362 to 2549 of mTOR (EMBL Accession No. L34075) was stably expressed as a FLAG-tagged fusion in HEK293 cells as described by Vilella-Bach et al., […], 1999, 274, 4266-4272. The HEK293 FLAG-tagged mTOR (1362-2549) stable cell line was routinely maintained at 37° C. with 5% CO2 up to a confluency of 70-90% in Dulbecco's modified Eagle's growth medium (DMEM; Invitrogen Limited, Paisley, UK Catalogue No. 41966-029) containing 10% heat-inactivated foetal calf serum (FCS; Sigma, Poole, Dorset, UK, Catalogue No. F0392), 1% L-glutamine (Gibco, Catalogue No. 25030-024) and 2 mg/ml Geneticin (G418 sulfate; Invitrogen Limited, UK Catalogue No. 1013 1-027). Following expression in the mammalian HEK293 cell line, expressed protein was purified using the FLAG epitope tag using standard purification techniques.
Aliquots (120 nl […]) of each compound dilution were acoustically dispensed placed using a Labcyte Echo 550 into a well of a Greiner 384-well low volume (LV) white polystyrene plate (Greiner Bio-one).
These assay solutions were incubated for 2 hours at room temperature.
Each reaction was stopped by the addition of […] of a mixture of EDTA (50 mM), bovine serum albumin (BSA; 0.5 mg/mL) and Tris-HCl pH 7.4 buffer (50 mM) containing p70 S6 Kinase (T389) 1A5 Monoclonal Antibody (Cell Signalling Technology, Catalogue No. 9206B) and AlphaScreen Streptavidin donor and Protein A acceptor beads (200 ng; Perkin Elmer, Catalogue No. 6760002B and 6760137R respectively) were added and the assay plates were left overnight at room temperature in the dark. The resultant signals arising from laser light excitation at 680 nm were read using a Packard Envision instrument.
The phosphorylated biotinylated peptide that is associated with AlphaScreen Streptavidin donor beads forms a complex with the p70 S6 Kinase (T389) 1A5 Monoclonal Antibody that is associated with Alphascreen Protein A acceptor beads. Upon laser light excitation at 680 nm, the donor bead: acceptor bead complex produces a signal that can be measured. Accordingly, the presence of mTOR kinase activity results in an assay signal. In the presence of an mTOR kinase inhibitor, signal strength is reduced.
mTOR enzyme inhibition for a given test compound was expressed as an IC50 value.

Where [1] appears, read: read-out: mTOR Kinase Assay (Echo).
Where [2] appears, read: table of enzyme assay Test (a)(ii), read-out: Test (a)(ii) IC50.

T1 sequence (P42345 1362-2549): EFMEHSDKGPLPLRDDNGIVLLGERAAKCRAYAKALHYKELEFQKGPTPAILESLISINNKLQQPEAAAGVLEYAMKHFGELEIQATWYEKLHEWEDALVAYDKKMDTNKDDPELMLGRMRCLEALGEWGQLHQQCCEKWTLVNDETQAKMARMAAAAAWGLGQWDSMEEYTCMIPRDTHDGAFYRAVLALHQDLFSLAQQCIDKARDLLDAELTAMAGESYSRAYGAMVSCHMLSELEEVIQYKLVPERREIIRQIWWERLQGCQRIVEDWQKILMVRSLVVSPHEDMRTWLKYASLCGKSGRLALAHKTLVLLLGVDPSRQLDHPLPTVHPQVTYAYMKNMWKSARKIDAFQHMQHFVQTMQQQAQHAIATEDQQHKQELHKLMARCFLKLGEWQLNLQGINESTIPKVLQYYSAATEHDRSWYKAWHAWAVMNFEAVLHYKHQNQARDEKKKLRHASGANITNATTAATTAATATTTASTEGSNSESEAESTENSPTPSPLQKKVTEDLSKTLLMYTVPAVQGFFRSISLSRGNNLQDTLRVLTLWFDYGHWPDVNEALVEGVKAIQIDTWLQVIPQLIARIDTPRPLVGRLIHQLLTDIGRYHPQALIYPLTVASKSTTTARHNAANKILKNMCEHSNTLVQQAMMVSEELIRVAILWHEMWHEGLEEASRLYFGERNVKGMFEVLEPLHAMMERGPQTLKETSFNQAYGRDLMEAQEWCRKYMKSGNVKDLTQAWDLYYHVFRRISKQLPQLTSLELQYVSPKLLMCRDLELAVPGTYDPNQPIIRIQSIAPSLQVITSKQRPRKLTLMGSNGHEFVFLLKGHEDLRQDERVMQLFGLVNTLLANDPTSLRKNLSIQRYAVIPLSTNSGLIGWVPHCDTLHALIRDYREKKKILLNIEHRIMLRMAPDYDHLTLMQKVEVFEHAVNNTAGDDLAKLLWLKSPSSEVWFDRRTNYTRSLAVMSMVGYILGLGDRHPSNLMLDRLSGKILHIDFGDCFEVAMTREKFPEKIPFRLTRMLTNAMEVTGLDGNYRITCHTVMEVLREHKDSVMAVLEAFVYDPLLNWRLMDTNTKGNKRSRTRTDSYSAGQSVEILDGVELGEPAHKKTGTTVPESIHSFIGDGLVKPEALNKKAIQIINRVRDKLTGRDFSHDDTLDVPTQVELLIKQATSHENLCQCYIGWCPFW

Turning to `COc1ccc(NC(=O)Nc2ccc(-c3nc(N4CCOC[C@@H]4C)cc(C4(S(C)(=O)=O)CC4)n3)cc2)cn1` [Example 2o, 3-(6-methoxypyridin-3-yl)-1-[4-[4-[(3S)-3-methylmorpholin-4-yl]-6-(1-methylsulfonylcyclopropyl)pyrimidin-2-yl]phenyl]urea], the IC50 under setting [1] was determined as 0.851 nM and the IC50 under setting [2] turned out to be 0.403 nM.

For the molecule `C[C@H]1COCCN1c1cc(C2(S(C)(=O)=O)CC2)nc(-c2ccc(NC(=O)Nc3ccc(F)cc3)cc2)n1` [Example 2p, 3-(4-fluorophenyl)-1-[4-[4-[(3S)-3-methylmorpholin-4-yl]-6-(1-methylsulfonylcyclopropyl)pyrimidin-2-yl]phenyl]urea], under setting [1], the IC50 came to 2.7 nM. `C[C@H]1COCCN1c1cc(C2(S(C)(=O)=O)CC2)nc(-c2ccc(NC(=O)Nc3ccc(F)c(F)c3)cc2)n1` [Example 2q, 3-(3,4-difluorophenyl)-1-[4-[4-[(3S)-3-methylmorpholin-4-yl]-6-(1-methylsulfonylcyclopropyl)pyrimidin-2-yl]phenyl]urea]: the IC50 was 1 nM under setting [1] and 0.379 nM under setting [2]. Turning to `Cc1ccc(NC(=O)Nc2ccc(-c3nc(N4CCOC[C@@H]4C)cc(C4(S(C)(=O)=O)CC4)n3)cc2)cc1` [Example 2r, 1-[4-[4-[(3S)-3-methylmorpholin-4-yl]-6-(1-methylsulfonylcyclopropyl)pyrimidin-2-yl]phenyl]-3-(4-methylphenyl)urea], the IC50 reads like this: under setting [1], 0.66 nM; under setting [2], 1.03 nM. On to `C[C@H]1COCCN1c1cc(C2(S(C)(=O)=O)CC2)nc(-c2ccc(NC(=O)Nc3ccc(Cl)cc3)cc2)n1` [Example 2s, 3-(4-chlorophenyl)-1-[4-[4-[(3S)-3-methylmorpholin-4-yl]-6-(1-methylsulfonylcyclopropyl)pyrimidin-2-yl]phenyl]urea], for which the IC50 by setting is: under setting [1], 1.38 nM; under setting [2], 1.55 nM.

With `COc1ccc(NC(=O)Nc2ccc(-c3nc(N4CCOC[C@@H]4C)cc(C4(S(C)(=O)=O)CC4)n3)cc2)cc1` [Example 2t, 3-(4-methoxyphenyl)-1-[4-[4-[(3S)-3-methylmorpholin-4-yl]-6-(1-methylsulfonylcyclopropyl)pyrimidin-2-yl]phenyl]urea], the IC50 under setting [1] is 1.45 nM and the IC50 under setting [2] turned out to be 0.656 nM. `Cc1cc(NC(=O)Nc2ccc(-c3nc(N4CCOC[C@@H]4C)cc(C4(S(C)(=O)=O)CC4)n3)cc2)no1` [Example 2u, 1-[4-[4-[(3S)-3-methylmorpholin-4-yl]-6-(1-methylsulfonylcyclopropyl)pyrimidin-2-yl]phenyl]-3-(5-methyl-1,2-oxazol-3-yl)urea]: the IC50 under setting [1] amounted to 1.18 nM. For `C[C@H]1COCCN1c1cc(C2(S(C)(=O)=O)CC2)nc(-c2ccc(NC(=O)Nc3ccc(F)cn3)cc2)n1` [Example 2v, 3-(5-fluoropyridin-2-yl)-1-[4-[4-[(3S)-3-methylmorpholin-4-yl]-6-(1-methylsulfonylcyclopropyl)pyrimidin-2-yl]phenyl]urea], the IC50 under setting [1] came out at 8.66 nM.

On to `C[C@H]1COCCN1c1cc(C2(S(C)(=O)=O)CC2)nc(-c2ccc(NC(=O)NCC(C)(C)CO)cc2)n1` [Example 2w, 3-(3-hydroxy-2,2-dimethylpropyl)-1-[4-[4-[(3S)-3-methylmorpholin-4-yl]-6-(1-methylsulfonylcyclopropyl)pyrimidin-2-yl]phenyl]urea], for which, under setting [1], the IC50 amounted to 68.5 nM.

Turning to `C[C@H]1COCCN1c1cc(C2(S(C)(=O)=O)CC2)nc(-c2ccc(NC(=O)NCCC#N)cc2)n1` [Example 2x, 3-(2-cyanoethyl)-1-[4-[4-[(3S)-3-methylmorpholin-4-yl]-6-(1-methylsulfonylcyclopropyl)pyrimidin-2-yl]phenyl]urea], the IC50 under setting [1] was determined as 1.64 nM. Consider `C[C@H]1COCCN1c1cc(C2(S(C)(=O)=O)CC2)nc(-c2ccc(NC(=O)NCCN3CCCC3)cc2)n1` [Example 2y, 1-[4-[4-[(3S)-3-methylmorpholin-4-yl]-6-(1-methylsulfonylcyclopropyl)pyrimidin-2-yl]phenyl]-3-(2-pyrrolidin-1-ylethyl)urea], for which, under setting [1], the IC50 came out at 230 nM.

In the case of `C[C@H]1COCCN1c1cc(C2(S(C)(=O)=O)CC2)nc(-c2ccc(NC(=O)NCC(O)C(F)(F)F)cc2)n1` (stereo partly drawn) [Example 2z, 1-[4-[4-[(3S)-3-methylmorpholin-4-yl]-6-(1-methylsulfonylcyclopropyl)pyrimidin-2-yl]phenyl]-3-(3,3,3-trifluoro-2-hydroxypropyl)urea], the IC50 under setting [1] was 18.1 nM. On to `C[C@H]1COCCN1c1cc(C2(S(=O)(=O)C3CC3)CC2)nc(-c2ccc(NC(=O)NC3CCC3)cc2)n1` [Example 3a, 3-cyclobutyl-1-[4-[4-(1-cyclopropylsulfonylcyclopropyl)-6-[(3S)-3-methylmorpholin-4-yl]pyrimidin-2-yl]phenyl]urea], for which the IC50 under setting [1] was 4.45 nM. For the molecule `C[C@H]1COCCN1c1cc(C2(S(=O)(=O)C3CC3)CC2)nc(-c2ccc(NC(=O)Nc3ccccn3)cc2)n1` [Example 3b, 1-[4-[4-(1-cyclopropylsulfonylcyclopropyl)-6-[(3S)-3-methylmorpholin-4-yl]pyrimidin-2-yl]phenyl]-3-pyridin-2-yl-urea], the IC50 under setting [1] is 3.85 nM. `CC(C)CNC(=O)Nc1ccc(-c2nc(N3CCOC[C@@H]3C)cc(C3(S(=O)(=O)C4CC4)CC3)n2)cc1` [Example 3c, 1-[4-[4-(1-cyclopropylsulfonylcyclopropyl)-6-[(3S)-3-methylmorpholin-4-yl]pyrimidin-2-yl]phenyl]-3-(2-methylpropyl)urea]: the IC50 under setting [1] was 12.4 nM.

Consider `CC(C)NC(=O)Nc1ccc(-c2nc(N3CCOC[C@@H]3C)cc(C3(S(=O)(=O)C4CC4)CC3)n2)cc1` [Example 3d, 1-[4-[4-(1-cyclopropylsulfonylcyclopropyl)-6-[(3S)-3-methylmorpholin-4-yl]pyrimidin-2-yl]phenyl]-3-propan-2-yl-urea], for which the IC50 under setting [1] came to 13.5 nM. Take `CCNC(=O)Nc1ccc(-c2nc(N3CCOC[C@@H]3C)cc(C3(S(=O)(=O)C4CC4)CC3)n2)cc1` [Example 3e, 3-[4-[4-(1-cyclopropylsulfonylcyclopropyl)-6-[(3S)-3-methylmorpholin-4-yl]pyrimidin-2-yl]phenyl]-1-ethyl-urea]: the IC50 under setting [1] came to 1.66 nM.

On to `C[C@H]1COCCN1c1cc(C2(S(=O)(=O)C3CC3)CC2)nc(-c2ccc(NC(=O)NCCN(C)C)cc2)n1` [Example 3f, 1-[4-[4-(1-cyclopropylsulfonylcyclopropyl)-6-[(3S)-3-methylmorpholin-4-yl]pyrimidin-2-yl]phenyl]-3-(2-dimethylaminoethyl)urea], for which the IC50 under setting [1] amounted to 21.4 nM. On to `CCCNC(=O)Nc1ccc(-c2nc(N3CCOC[C@@H]3C)cc(C3(S(=O)(=O)C4CC4)CC3)n2)cc1` [Example 3h, 3-[4-[4-(1-cyclopropylsulfonylcyclopropyl)-6-[(3S)-3-methylmorpholin-4-yl]pyrimidin-2-yl]phenyl]-1-propyl-urea], for which, under setting [1], the IC50 was determined as 16.5 nM. `CNC(=O)Nc1ccc(-c2nc(N3CCOC[C@@H]3C)cc(C3(S(=O)(=O)C4CC4)CC3)n2)cc1` [Example 3i, 1-[4-[4-(1-cyclopropylsulfonylcyclopropyl)-6-[(3S)-3-methylmorpholin-4-yl]pyrimidin-2-yl]phenyl]-3-methyl-urea]: under setting [1], the IC50 came out at 0.932 nM. `C[C@H]1COCCN1c1cc(C2(S(=O)(=O)C3CC3)CC2)nc(-c2ccc(NC(=O)Nc3ccc(C(F)(F)F)cc3)cc2)n1` [Example 3j, 1-[4-[4-(1-cyclopropylsulfonylcyclopropyl)-6-[(3S)-3-methylmorpholin-4-yl]pyrimidin-2-yl]phenyl]-3-[4-(trifluoromethyl)phenyl]urea]: under setting [1], the IC50 was determined as 4.22 nM. The same measure, in the same setting: the value for `C[C@H]1COCCN1c1cc(C2(S(=O)(=O)C3CC3)CC2)nc(-c2ccc(NC(=O)NC(C)(C)CO)cc2)n1` [Example 3k, 1-[4-[4-(1-cyclopropylsulfonylcyclopropyl)-6-[(3S)-3-methylmorpholin-4-yl]pyrimidin-2-yl]phenyl]-3-(1-hydroxy-2-methyl-propan-2-yl)urea] was 2.27 nM; that for `C[C@H]1COCCN1c1cc(C2(S(=O)(=O)C3CC3)CC2)nc(-c2ccc(NC(=O)NCCCO)cc2)n1` [Example 3l, 1-[4-[4-(1-cyclopropylsulfonylcyclopropyl)-6-[(3S)-3-methylmorpholin-4-yl]pyrimidin-2-yl]phenyl]-3-(3-hydroxypropyl)urea] was 2.57 nM.

The record behind these values is US20090018134A1, “Compounds - 945” (AstraZeneca AB, priority 2007, published 2009).
